Test results from patent US10280197B2, “Discovery of the first selective C5A receptor 2 (C5L2/C5AR2) ligands” (The Regents of the University of California, priority 2015, dated 2019).

Experiments:
[1] = system: ERK1/2 activation in HMDM; experiment: ERK1/2 phosphorylation assay (Alphascreen Surefire) in HMDM; type: cell-based, human; conditions: for inhibition of C5a-induced ERK1/2 activation in HMDM: 30 min pre-incubation, then C5a 5 nM for 10 min; for direct ERK1/2 activation in HMDM: peptide alone
Procedure: FIG. 5 is a graph showing that P32 and P59 inhibit C5a-induced ERK1/2 activation in HMDM. pERK quantified by Surefire ERK1/2 kit. Data is normalised to C5a 5 nM (100%) for each donor. Data are representative of at least three independent experiments HMDM donors performed in triplicate (n=3-5). Error bars represent SEM. **** P<0.0001 by one-way ANOVA followed by Dunnett's post hoc test.
ERK1/2 phosphorylation assays were performed using the Alphascreen Surefire ERK1/2 kit (Perkin Elmer) as per manufacturers' instructions. Briefly, HMDM were seeded at 50 000 cells/well in 96-well tissue culture plates (Nunc, Waltham, Mass., USA) and serum starved overnight. Ligands were prepared in serum-free media. P32 and P59 were pre-incubated with cells for 30 min at 37° C. and 5% CO2, prior to the addition of C5a (5 nM) for 10 min at 37° C. and 5% CO2. Media was then removed and cells lysed with lysis buffer for 10 min on a shaker, 4 μL of lysate was transferred to a white 384-well proxiplate plate (Perkin Elmer) and incubated in the presence of 7 μL of reaction mix. The plate was sealed with TopSeal-A, incubated for 2 h at 37° C. and measured on an M1000Pro plate reader (Tecan, Mannedorf, Switzerland).

[2] = system: C5a-induced neutrophil mobilization; experiment: C5a-induced neutrophil mobilization in C5aR2-/- mice; type: in vivo, C5aR2-/- mice on a C57BL/6J background; conditions: P32 3 mg/kg i.v. with C5a 50 μg/kg, 30 min
Procedure: (§1) FIG. 6 is a panel of graphs showing that P32 inhibits C5a-induced neutrophil mobilization in vivo in a C5aR2 dependent manner. Neutrophil mobilization quantified 30 min after i.v. injection of PBS, C5a (50 μg/kg), or P32 (3 mg/kg) with and without C5a present into the femoral vein of either C57BL/6J wild-type (6A) or C5aR2^−/− (6B) on a C57BL/6J background mice. Total circulating leukocyte counts were determined from blood smears and total white blood cell counts using a hemocytometer. Data are representative from at least 6 mice per treatment group and blood smears in triplicate (n=6). Error bars represent SEM. * P<0.05, *** P<0.001 by one-way ANOVA followed by Dunnett's post hoc test
(§2) To further explore the selectivity of the ligands P32 was tested in a mouse model of C5a-induced neutrophil mobilization (FIG. 6). […] Assuming a mouse blood volume of 2 mL for a 25 g mouse, a concentration of 3 mg/kg would result in Cmax blood concentrations of ˜50 uM, a dose within the active range of this compound from our in vitro studies

[3] = system: C5a-induced neutrophil mobilization; experiment: C5a-induced neutrophil mobilization in wild-type mice; type: in vivo, C57BL/6J wild-type mice; conditions: P32 3 mg/kg i.v. with C5a 50 μg/kg, 30 min
Procedure: as §1, §2

For “Ac-LIRLWR-OH [Peptide P59, Ac-LIRLWR-OH]”, the “inhibition of C5a-induced ERK1/2 activation in HMDM” value [1] was “significantly inhibit” and the “direct ERK1/2 activation in HMDM” value [1] was “Neither P32 or P59 could induce ERK1/2 activation alone”.

With “Ac-RHYPYWR-OH [Peptide P32, Ac-RHYPYWR-OH]” the “inhibition of C5a-induced neutrophil mobilization” value [2] was “attenuated”, the “inhibition of C5a-induced neutrophil mobilization” value [3] was “significantly inhibit” and the “inhibition of C5a-induced ERK1/2 activation in HMDM” value [1] was “significantly inhibit”. The “direct ERK1/2 activation in HMDM” value [1] was “Neither P32 or P59 could induce ERK1/2 activation alone”.
